Experimental data from US9987296B2, “Compositions including anthocyanin or anthocyanidin for the prevention or treatment of Articular cartilage-associated conditions” (priority 2008, dated 2018).
Entries after “also recorded” stand apart in the source; their conditions may differ.

Tests used:
Format in all cases: cell-based
IGF-1 [1] = assay: IGF-1 gene expression in human synovial explants; details: for IGF-1 gene expression and production: synovial explants, together with glucose, overall conclusion
Description: Synovial explants (N=6) were harvested from human donors undergoing either uni-compartmental or total knee replacement. In all but the first experiment, the specimens were trimmed of extraneous adipose tissue and washed in low glucose DMEM (1 g/l). The specimens in the first experiment were not trimmed of excess adipose tissue and were washed in high-glucose DMEM (4.5 g/L).
In the first experiment (n=2), the specimens were cultured for 48 hours in 0.1% calf serum and either high- or low-glucose DMEM. In the second tow experiments (n=4), the specimens were cultured for 48 hours in serum-free ITS (Insulin, Transferrin, Selenium) media diluted with either high- or low-glucose DMEM. IGF-1 gene expression. Briefly, total RNA was extracted from synovial tissue using RNeasy Total RNA Kit (Qiagen, Inc., Santa Clarita, Calif.). Real-time quantitative RT-PCR was done using Taqman RT-PCR reagents (Applied Biosystems, Foster City, Calif.).
(§1) Expression of IGF-1 was normalized to that of the housekeeping gene GAPDH. IGF-1 ELISA. Human IGF-1 protein secretion into the culture media was measured by ELISA (RD Systems, Minneapolis, Minn.). Synovial culture media was centrifuged to remove any particulates. Controls and samples were added to ELISA wells which were pre-coated with a monoclonal antibody specific for IGF-1. Any IGF-1 present would be expected to be bound by the immobilized antibody. After washing away any unbound substances, an enzyme-linked polyclonal antibody specific for IGF-1 was added to the wells. Following a wash to remove any unbound antibody-enzyme reagent. a substrate solution was added to the wells. The medial developed a color intensity in proportion to the amount of IGF-1 bound in the initial step. Optical density of each well was determined by using a microplate reader set to 450 nm. IGF-1 activity obtained by serial dilution of known protein concentrations.
(§2) Synovial explants (n=6) were harvested from human donors undergoing total knee replacement. The specimens were trimmed of extraneous adipose tissue. In the two experiments, the synovial specimens were washed in low-glucose DMEM (1 g/L) for a few hours and then placed in the assigned treatment groups. In subsequent experiments the synovial specimens were washed in low-glucoses DMEM for 24 hours before treatment.
(§3) In all experiments (n=4), the specimens were cultured for 48 hours in serum-free ITS (Insulin, Transferrin, Selenium) media diluted with either high- or low-glucose DMEM. In addition, various anthocyanins were added to both the high- and low-glucose groups. Low-glucose alone acted as a control group. After the two experiments, the level of media was adjusted relative to the weight of the tissue.
Briefly, total RNA was extracted from synovial tissue using RNeasy Total RNA Kit (Qiagen Inc., Santa Clarita, Calif.). Real-time quantitative RT-PCR was done using ‘ragman RT-PCR. reagents (Applied Biosystems, Foster City, Calif.). Expression of IGF-1 was normalized to that of the housekeeping gene GAPDH. The results of IGF-1 gene expression are only presented if detectable levels of low glucose alone were present and able to serve as a control group for relative-fold change in expression.

IGF-1 [2] = assay: Real time RT-PCR for IGF-1 in human chondrocytes; details: for IGF-1 gene expression compared to IL-1 alone: 5 or 50 ug/mL with IL-1, 50 ug/mL alone (FIGS. 3, 4)
Description: Chondrocytes were prepared by the enzymatic digestion of knee cartilage, as previously described. (Ahmed S et al., J Nutr 2005 135:20962102). Chondrocytes were plated (1×10^6 cells/mL) in 35 mm culture dishes (BD, Mountain View, Calif.) and cultured in DMEM:F12 (Mediatech, Herndon, Va.) supplemented with 10% FCS and 1% Penn:Strep for 72 hrs at 37° C. and 5% CO2 in a tissue culture incubator. Chondrocytes were serum starved overnight and then exposed to either kuromanin or cyanidin chloride (5 or 50 ug/mL), progrado (2 or 10 ug/mL) alone or in combination in fresh serum-free medium for 1 hr prior to the addition of IL-β.
Total cytoplasmic RNA was prepared from primary cultures of human chondrocytes using a commercially available kit according to the instructions of the manufacturer (Qiagen, Valencia, Calif.). Real time quantitative RT-PCR with internal fluorescent hybridization probes was performed as previously described (Ahmed S et al., ECAM 2005 2:301-8) and the IGF-1 gene expression was quantified using a commercially available Gene Expression Assay kit (Applied Biosystems, CA). Expression of IGF-1 mRNA was normalized to […] mRNA expression. and the results were expressed as fold induction relative to controls.

IGF-1 [3] = assay: IGF-1 ELISA of culture media of human synovial explants; details: for IGF-1 protein release in media: high vs low glucose
Description: as §2, §3
as §1, with “Human IGF-1” for “Expression of IGF-1 was normalized to that of the housekeeping gene GAPDH. IGF-1 ELISA. Human IGF-1”, “by ELISA (R & D Systems, Minneapolis,” for “by ELISA (RD Systems, Minneapolis,”, “unbound antibody-enzyme reagent, a substrate” for “unbound antibody-enzyme reagent. a substrate”, “wells. The media developed a” for “wells. The medial developed a”, “nm. IGF-1 concentration in the sample was calculated by a standardized curve of IGF-I activity obtained” for “nm. IGF-1 activity obtained”

[4] = FIG. 22, volume titrated to tissue weight, in high glucose
[5] = increasing glucose concentration, synovial tissue

OC[C@H]1O[C@@H](Oc2cc3c(O)cc(O)cc3[o+]c2-c2ccc(O)c(O)c2)[C@H](O)[C@@H](O)[C@@H]1O.[Cl-] [Kuromanin chloride]
IGF-1 gene expression (IGF-1 [1]; FIG. 24, in the presence of high glucose): inhibitory
IGF-1 gene expression relative to low glucose alone (IGF-1 [1]; FIG. 24, in the presence of low glucose): 3 fold
IGF-1 gene expression and production (IGF-1 [1]): elevate IGF-1 gene expression and production
IGF-1 gene expression compared to IL-1 alone (IGF-1 [2]): greater compared to IL-1 alone when treated with kuromanin at high dose
IGF-1 gene expression (IGF-1 [2]; IL-1 with compound at 5 or 50 ug/mL): no further changing in this pattern
IGF-1 protein levels in media (IGF-1 [3]; FIG. 22, volume titrated to tissue weight, combined with low glucose, listed as Kuromanin): greatest effect
IGF-1 protein levels in media (IGF-1 [3]; FIG. 22, volume titrated to tissue weight, combined with low glucose, listed as kuromanin): greatest production of IGF-1 protein levels
IGF-1 protein levels in media (IGF-1 [3]; [4]): inhibitory

O=C[C@H](O)[C@@H](O)[C@H](O)[C@H](O)CO [glucose]
IGF-1 gene expression relative to low glucose alone (IGF-1 [1]; FIG. 24, High glucose alone): over 4 fold
IGF-1 gene expression relative to low glucose alone (IGF-1 [1]; FIG. 27, High Glucose alone, grossly inflamed sample (RH)): highest expression levels
increase in IGF-1 gene expression compared to low glucose alone (IGF-1 [1]; FIG. 28, High Glucose alone): 12 fold
increase of IGF-1 gene expression (IGF-1 [1]; high (4.5 g/L) vs low (1 g/L) glucose, 48 hours, three donors): up to 5 fold
IGF-1 gene expression (IGF-1 [1]; [5]): increase both IGF-1 gene expression and IGF-1 release; also recorded: significantly increase; also recorded: consistently increased IGF-1 gene expression
level of IGF-1 protein in media (IGF-1 [3]; FIG. 23, volume titrated to tissue weight, High Glucose alone (highest level)): above 2.00 ng/ml
level of IGF-1 protein in media (IGF-1 [3]; FIG. 25, volume titrated to tissue weight, High Glucose alone): highest level of IGF-1 protein
level of IGF-1 protein in media (IGF-1 [3]; FIG. 26, High Glucose alone): highest level of IGF-1 protein
IGF-I protein expression (IGF-1 [3]; High Glucose alone, across the experiments of Example 7): most consistent increase in IGF-I protein expression
IGF-1 levels in media, on average (IGF-1 [3]; high (4.5 g/L) vs low (1 g/L) glucose, 48 hours, 6 donors): more than doubled
increase of IGF-1 in media, tissue that responded the most (IGF-1 [3]; high glucose, donor undergoing unicompartmental arthroplasty): 5 ×
IGF-1 protein release in media (IGF-1 [3]; four donors): significant response
IGF-1 protein release in media (IGF-1 [3]; two donors): no effect on IGF-1 protein release in media
IGF-1 secretion (IGF-1 [3]; [5]): increase both IGF-1 gene expression and IGF-1 release; also recorded: increased IGF-1 secretion in synovial tissue, but in a donor dependent fashion

Oc1cc(O)c2cc(O)c(-c3ccc(O)c(O)c3)[o+]c2c1 [Cyanidin chloride]
IGF-1 gene expression relative to low glucose alone (IGF-1 [1]; FIG. 27, in the presence of high glucose): highest expression levels
IGF-1 gene expression and production (IGF-1 [1]): elevate IGF-1 gene expression and production
IGF-1 gene expression (IGF-1 [2]; 50 ug/mL dose, duplicate, called anomalous): elevated above control
IGF-1 gene expression compared to IL-1 alone (IGF-1 [2]): increased IGF-1 gene expression more than kuromanin; also recorded: greater compared to IL-1 alone when treated with cyanidin alone or in combination with IL-1
IGF-1 protein levels in media (IGF-1 [3]; FIG. 21, 7 ml of media regardless of sample weight, with High Glucose, listed as Cyanidin): highest IGF-1 protein levels
IGF-1 protein levels in media (IGF-1 [3]; FIG. 21, 7 ml of media regardless of sample weight, with High Glucose, listed as cyanidin): highest levels of IGF-1 in media
IGF-1 protein levels in media (IGF-1 [3]; FIG. 22, volume titrated to tissue weight, combined with low glucose, listed as Cyanidin): greatest effect
IGF-1 protein levels in media (IGF-1 [3]; FIG. 22, volume titrated to tissue weight, combined with low glucose, listed as cyanidin): greatest production of IGF-1 protein levels
IGF-1 protein levels in media (IGF-1 [3]; [4]): inhibitory
level of IGF-1 protein in media (IGF-1 [3]; FIG. 26, lower anthocyanin concentration (5 mM), in the presence of low glucose): highest level of IGF-1 protein
